Assays:
[1] = xn = mol fraction of the nth substance listed; settings: for viscosity / mass density: 101 kPa, Liquid; for viscosity: Capillary tube (Ostwald / Ubbelohde) method; for mass density: Vibrating tube method
[2] = refractive index (Na D-line) (dimensionless); xn = mol fraction of the nth substance listed; settings: 101 kPa, Liquid

C1C[C@@H]2[C@H]3CC[C@H](C3)[C@@H]2C1 [exo-tetrahydrodicyclopentadiene] + CCCCCCCCC
surface tension liquid-gas [mN/m], [1], Capillary rise
Settings	x2 = 0	x2 = 0.1089	x2 = 0.2212	x2 = 0.3244	x2 = 0.4159	x2 = 0.5099	x2 = 0.6161	x2 = 0.7128	x2 = 0.8078	x2 = 0.9133
293.15 K	31.86	30.17	27.92	27.12	26.34	25.59	24.35	23.84	23.14	22.6
303.15 K	31.09	29.01	27.45	26.63	25.74	24.86	23.36	22.88	22.39	21.81

Settings	mass density, 293.15 K [kg/m3]	mass density, 298.15 K [kg/m3]	mass density, 303.15 K [kg/m3]	mass density, 313.15 K [kg/m3]	refractive index, 293.15 K	refractive index, 303.15 K	viscosity, 293.15 K [mPa·s]	viscosity, 298.15 K [mPa·s]	viscosity, 303.15 K [mPa·s]	viscosity, 313.15 K [mPa·s]
[1], x2 = 0	935.3	931.4	927.5	919.6	–	–	3.077	2.784	2.525	2.112
[1], x2 = 0.1089	907.6	903.7	899.8	891.9	–	–	2.455	2.229	2.04	1.728
[1], x2 = 0.2212	880.1	876.2	872.3	864.4	–	–	2.005	1.836	1.687	1.441
[1], x2 = 0.3244	855.8	851.9	848	840.1	–	–	1.683	1.545	1.426	1.227
[1], x2 = 0.4159	835.1	831.2	827.2	819.4	–	–	1.459	1.344	1.244	1.077
[1], x2 = 0.5099	814.5	810.6	806.6	798.8	–	–	1.277	1.176	1.091	0.951
[1], x2 = 0.6161	792	788.1	784.2	776.3	–	–	1.109	1.028	0.958	0.839
[1], x2 = 0.7128	772.3	768.4	764.5	756.7	–	–	0.985	0.917	0.856	0.754
[1], x2 = 0.8078	753.7	749.8	745.9	738	–	–	0.887	0.827	0.775	0.686
[1], x2 = 0.9133	733.7	729.8	725.9	718.1	–	–	0.795	0.744	0.699	0.622
[2], x2 = 0	–	–	–	–	1.4877	1.4832	–	–	–	–
[2], x2 = 0.1089	–	–	–	–	1.4777	1.4728	–	–	–	–
[2], x2 = 0.2212	–	–	–	–	1.4667	1.4627	–	–	–	–
[2], x2 = 0.3244	–	–	–	–	1.457	1.4517	–	–	–	–
[2], x2 = 0.4159	–	–	–	–	1.45	1.445	–	–	–	–
[2], x2 = 0.5099	–	–	–	–	1.4422	1.4377	–	–	–	–
[2], x2 = 0.6161	–	–	–	–	1.4332	1.4282	–	–	–	–
[2], x2 = 0.7128	–	–	–	–	1.426	1.421	–	–	–	–
[2], x2 = 0.8078	–	–	–	–	1.4192	1.4139	–	–	–	–
[2], x2 = 0.9133	–	–	–	–	1.4114	1.4062	–	–	–	–

C1C[C@@H]2[C@H]3CC[C@H](C3)[C@@H]2C1 [exo-tetrahydrodicyclopentadiene] + CCCCCCCCCCCC
Settings	mass density, [1] [kg/m3]	refractive index, [2]	surface tension liquid-gas, [1] [mN/m]	viscosity, [1] [mPa·s]
293.15 K, x2 = 0	935.3	1.4877	31.86	3.077
293.15 K, x2 = 0.0803	913	1.4796	30.13	2.796
293.15 K, x2 = 0.1712	889.9	1.4711	29.15	2.54
293.15 K, x2 = 0.2563	870	1.462	28.63	2.34
293.15 K, x2 = 0.3428	851.4	1.4573	27.95	2.169
293.15 K, x2 = 0.4443	831.4	1.4502	27.32	2.006
293.15 K, x2 = 0.5407	814.1	1.4448	26.32	1.881
293.15 K, x2 = 0.6527	795.7	1.4383	25.94	1.764
293.15 K, x2 = 0.7596	779.8	1.4325	25.67	1.672
293.15 K, x2 = 0.8855	762.7	1.4271	24.51	1.574
298.15 K, x2 = 0	931.4	–	–	2.784
298.15 K, x2 = 0.0803	909.1	–	–	2.535
298.15 K, x2 = 0.1712	886.1	–	–	2.307
298.15 K, x2 = 0.2563	866.2	–	–	2.127
298.15 K, x2 = 0.3428	847.7	–	–	1.974
298.15 K, x2 = 0.4443	827.7	–	–	1.827
298.15 K, x2 = 0.5407	810.4	–	–	1.715
298.15 K, x2 = 0.6527	792	–	–	1.61
298.15 K, x2 = 0.7596	776.1	–	–	1.526
298.15 K, x2 = 0.8855	759.1	–	–	1.438
303.15 K, x2 = 0	927.5	1.4832	31.09	2.525
303.15 K, x2 = 0.0803	905.2	1.4733	29.37	2.308
303.15 K, x2 = 0.1712	882.2	1.4657	28.51	2.104
303.15 K, x2 = 0.2563	862.4	1.4571	27.82	1.944
303.15 K, x2 = 0.3428	843.9	1.4524	26.77	1.807
303.15 K, x2 = 0.4443	824	1.4455	26.51	1.674
303.15 K, x2 = 0.5407	806.6	1.4396	25.84	1.572
303.15 K, x2 = 0.6527	788.3	1.4333	25.68	1.476
303.15 K, x2 = 0.7596	772.5	1.4279	24.58	1.4
303.15 K, x2 = 0.8855	755.5	1.4214	23.82	1.321
313.15 K, x2 = 0	919.6	–	–	2.112
313.15 K, x2 = 0.0803	897.4	–	–	1.939
313.15 K, x2 = 0.1712	874.5	–	–	1.775
313.15 K, x2 = 0.2563	854.7	–	–	1.644
313.15 K, x2 = 0.3428	836.2	–	–	1.532
313.15 K, x2 = 0.4443	816.4	–	–	1.422
313.15 K, x2 = 0.5407	799.2	–	–	1.337
313.15 K, x2 = 0.6527	780.9	–	–	1.257
313.15 K, x2 = 0.7596	765.1	–	–	1.193
313.15 K, x2 = 0.8855	748.1	–	–	1.128

C1C[C@@H]2[C@H]3CC[C@H](C3)[C@@H]2C1 [exo-tetrahydrodicyclopentadiene] + CCCCCCCCCCCCC
Settings	mass density, [1] [kg/m3]	refractive index, [2]	surface tension liquid-gas, [1] [mN/m]	viscosity, [1] [mPa·s]
293.15 K, x2 = 0	935.3	1.4877	31.86	3.077
293.15 K, x2 = 0.0757	913.9	1.4795	30.4	2.88
293.15 K, x2 = 0.1546	893.5	1.4726	29.63	2.703
293.15 K, x2 = 0.2392	873.7	1.4662	28.55	2.552
293.15 K, x2 = 0.3284	854.6	1.4586	28.03	2.419
293.15 K, x2 = 0.4236	836.3	1.4528	27.19	2.302
293.15 K, x2 = 0.5258	818.7	1.4468	26.68	2.198
293.15 K, x2 = 0.632	802.3	1.4407	25.95	2.108
293.15 K, x2 = 0.7477	786.3	1.4349	25.54	2.028
293.15 K, x2 = 0.8665	771.5	1.4306	25.19	1.963
298.15 K, x2 = 0	931.4	–	–	2.784
298.15 K, x2 = 0.0757	910	–	–	2.609
298.15 K, x2 = 0.1546	889.7	–	–	2.448
298.15 K, x2 = 0.2392	869.9	–	–	2.311
298.15 K, x2 = 0.3284	850.9	–	–	2.189
298.15 K, x2 = 0.4236	832.6	–	–	2.082
298.15 K, x2 = 0.5258	815	–	–	1.992
298.15 K, x2 = 0.632	798.7	–	–	1.913
298.15 K, x2 = 0.7477	782.7	–	–	1.842
298.15 K, x2 = 0.8665	767.9	–	–	1.789
303.15 K, x2 = 0	927.5	1.4832	31.09	2.525
303.15 K, x2 = 0.0757	906.1	1.4743	29.94	2.37
303.15 K, x2 = 0.1546	885.9	1.4683	28.98	2.233
303.15 K, x2 = 0.2392	866.1	1.4614	28.38	2.112
303.15 K, x2 = 0.3284	847.1	1.4541	27.21	2
303.15 K, x2 = 0.4236	828.9	1.4483	26.74	1.904
303.15 K, x2 = 0.5258	811.3	1.442	25.72	1.822
303.15 K, x2 = 0.632	795	1.4357	25.38	1.748
303.15 K, x2 = 0.7477	779	1.4305	24.83	1.689
303.15 K, x2 = 0.8665	764.3	1.4258	24.5	1.631
313.15 K, x2 = 0	919.6	–	–	2.112
313.15 K, x2 = 0.0757	898.4	–	–	1.975
313.15 K, x2 = 0.1546	878.2	–	–	1.86
313.15 K, x2 = 0.2392	858.4	–	–	1.759
313.15 K, x2 = 0.3284	839.5	–	–	1.669
313.15 K, x2 = 0.4236	821.4	–	–	1.587
313.15 K, x2 = 0.5258	803.9	–	–	1.521
313.15 K, x2 = 0.632	787.7	–	–	1.466
313.15 K, x2 = 0.7477	771.8	–	–	1.416
313.15 K, x2 = 0.8665	757	–	–	1.369
